Experimental data reported in paper PMC5039624 (Scientific Reports, 2016).
Bridge positions count the residues as written; N and C are the ends. Peptide text beside a SMILES is read from it.

Key:
Format in all cases: physicochemical
[1] = Liposome centrifugation assay, POPG liposomes; conditions: LUVs extruded through 0.1 μm filters, 10 mM HEPES pH 7.4, 150 mM NaCl; 10 μM toxin, 1 h room temperature, 30 min at 100,000 g; unbound toxin in supernatant by RP-HPLC; fit to partition equilibrium equation
Experimental: (§1) To investigate whether the micelle-binding interface identified by NMR-CSM faithfully reports on the lipid-binding interface of the peptide we used a previously reported liposome centrifugation assay[30] to study the interaction between VSTx1 and phospholipids with different head groups. VSTx1 was incubated with liposomes of different composition, then the liposomes were pelleted using ultracentrifugation and the amount of unbound VSTx1 in the supernatant was determined using reverse-phase (RP) HPLC (Fig. 4a,b). Partition coefficients (Kp) for binding of VSTx1 to liposomes were calculated by fitting to the partition equilibrium equation (see Eqn (3) in Materials and Methods). The Kp for binding to 1-palmitoyl-2-oleoyl-sn-glycero-3-phosphoglycerol (POPG) liposomes was 2.4 × 10^5 while the Kp values for binding to POPC or 1-palmitoyl-2-oleoyl-sn-glycero-3-phosphoethanolamine (POPE) liposomes were close to 0 (both <10^2) (Fig. 4e).
Large unilamellar vesicles (LUVs) were prepared by drying lipids (POPG and/or POPC, 25 mg/mL) under nitrogen gas, drying the lipid pellet under vacuum, and resuspending the lipids by vortexing for 1 h in an aqueous buffer containing 10 mM HEPES pH 7.4, and 150 mM NaCl. Vesicles were extruded 20 times using 0.1 μm polycarbonate filters (Avanti Polar Lipids, Inc.). Aqueous solutions of the toxin (10 μM) were incubated with varying amounts of vesicles for 1 h at room temperature, then the vesicles were centrifuged for 30 min at 100,000 g before the toxin concentration in the aqueous phase was determined. Aqueous concentrations of VSTx1 were quantified by RP-HPLC using a monolithic C18 column (4.6 × 100 mm). The toxin was eluted with a linear gradient of 10–50% solvent B (0.046% TFA in acetonitrile) in solvent A (0.05% TFA in water) over 10 min at a flow rate of 3 ml/min. The partition coefficients (Kp) for the binding of VSTx1 to liposomes were calculated by fitting to the partition equilibrium equation: […]

[2] = Liposome centrifugation assay, POPC liposomes; conditions: LUVs, 10 mM HEPES pH 7.4, 150 mM NaCl; 10 μM toxin, 1 h room temperature, 30 min at 100,000 g; supernatant by RP-HPLC; close to 0
Experimental: as §1, with “The Kp for binding to 1-palmitoyl-2-oleoyl-sn-glycero-3-phosphoglycerol (POPG) liposomes was 2.4 × 10^5 while the Kp values for binding to POPC or 1-palmitoyl-2-oleoyl-sn-glycero-3-phosphoethanolamine (POPE) liposomes were close to 0 (both <10^2) (Fig. 4e).” left out
(§2) Large unilamellar vesicles (LUVs) were prepared by drying lipids (POPG and/or POPC, 25 mg/mL) under nitrogen gas, drying the lipid pellet under vacuum, and resuspending the lipids by vortexing for 1 h in an aqueous buffer containing 10 mM HEPES pH 7.4, and 150 mM NaCl. […] Aqueous solutions of the toxin (10 μM) were incubated with varying amounts of vesicles for 1 h at room temperature, then the vesicles were centrifuged for 30 min at 100,000 g before the toxin concentration in the aqueous phase was determined. Aqueous concentrations of VSTx1 were quantified by RP-HPLC using a monolithic C18 column (4.6 × 100 mm). […]

[3] = Liposome centrifugation assay, POPE liposomes; conditions: 10 μM toxin, 1 h room temperature, 30 min at 100,000 g, supernatant by RP-HPLC, close to 0
Experimental: as §1, with “The Kp for binding to 1-palmitoyl-2-oleoyl-sn-glycero-3-phosphoglycerol (POPG) liposomes was 2.4 × 10^5 while the Kp values for binding to POPC or 1-palmitoyl-2-oleoyl-sn-glycero-3-phosphoethanolamine (POPE) liposomes were close to 0 (both <10^2) (Fig. 4e).” left out
as §2

[4] = Liposome centrifugation assay, liposomes with POPG content reduced by 25%; conditions: 10 mM HEPES pH 7.4, 150 mM NaCl, 10 μM toxin, 1 h room temperature, 30 min at 100,000 g, supernatant by RP-HPLC
Experimental: as §1, with “The Kp for binding to 1-palmitoyl-2-oleoyl-sn-glycero-3-phosphoglycerol (POPG) liposomes was 2.4 × 10^5 while the Kp values for binding to POPC or 1-palmitoyl-2-oleoyl-sn-glycero-3-phosphoethanolamine (POPE) liposomes were close to 0 (both <10^2) (Fig. 4e).” left out
as §2

With `CSCC[C@@H]1NC(=O)[C@H](Cc2ccccc2)NC(=O)[C@H](CCCCN)NC(=O)CNC(=O)[C@@H](NC(=O)[C@H](CCC(=O)O)NC(=O)[C@@H](N)CO)CSSC[C@@H]2NC(=O)[C@@H]3CSSC[C@@H](C(=O)N[C@H](C(=O)N[C@@H](CC(C)C)C(=O)N[C@@H](C)C(=O)N[C@@H](CO)C(=O)N4CCC[C@H]4C(=O)N[C@@H](Cc4ccccc4)C(=O)O)C(C)C)NC(=O)[C@H](Cc4c[nH]c5ccccc45)NC(=O)[C@H](CCCCN)NC(=O)[C@H](Cc4c[nH]c5ccccc45)NC(=O)[C@H](CCCNC(=N)N)NC(=O)[C@H](CO)NC(=O)[C@H](CO)NC(=O)[C@H](CSSC[C@H](NC(=O)[C@H](CCCCN)NC(=O)[C@H](Cc4c[nH]c5ccccc45)NC1=O)C(=O)N[C@@H](CCCCN)C(=O)N[C@@H](CC(N)=O)C(=O)N[C@@H](CO)C(=O)N[C@@H](CC(N)=O)C(=O)N[C@@H](CC(=O)O)C(=O)N3)NC(=O)[C@H](C(C)C)NC(=O)[C@H](CC(C)C)NC(=O)[C@H](CC(=O)O)NC(=O)[C@H](CCCCN)NC2=O` [VSTx1] (H-SECGKFMWKCKNSNDCCKDLVCSSRWKWCVLASPF-OH; disulfide 3-17, 10-22, 16-29) the “Partition coefficient (Kp) for binding to POPG liposomes” value [1] was 2.4 × 10^5, the “Partition coefficient (Kp) for binding to POPC liposomes” value [2] was < 10^2 and the “Partition coefficient (Kp) for binding to POPE liposomes” value [3] was < 10^2. For the same compound, the “Partition coefficient (Kp), POPG content of liposomes reduced by 25%” value [4] was 0.18 × 10^5.
